One data set has as its system tau-protein. Kind of data set: Phosphorylation of tau-protein by recombinant human TPK-I expressed in E. coli (phosphorylating method I). Particulars: room temperature, 20 hours. It is filed as biochemical, bovine. As to the method: tau-Protein extracted from bovine brain followed by purification (2 microliters; 1.5 mg/ml concentration) and 1 microliters of the above partially-purified enzyme solution were mixed. To the mixture was added a solution containing 2 mM adenosinetriphosphate and 2 mM magnesium acetate and [gamma-32P]adenosinetriphosphate so that the phosphorylation of tau-protein was conducted at room temperature for 20 hours whereby the amount of phosphoric acid incorporated in tau-protein was evaluated.

The next data set has as its system TPK-I. Kind of data set: Phosphorylation of tau-protein by extract of treated hippocampus cells (phosphorylating activity of TPK-I). It is filed as cell-based, rat. Particulars: 24 hours. As to the method:
Hippocampus cells were collected from the culture medium by washing with an ice-cooled phosphate buffer for three times. The cells were suspended in a buffer A (pH: 6.8) which contained 1 mM EGTA, 0.5 mM magnesium acetate and 20 mM 2-(N-morpholino)-ethanesulfonic acid containing a phosphatase inhibitor ([…]; manufactured by Seikagaku Kogyo) and a protease inhibitor (1 mM phenylmethylsulfonyl fluoride and each 1 micro gram/ml of leupeptin, pepstatin and aprotinin), homogenized and centrifuged at 14,000 rpm for one hour and the supernatant liquid was used for checking the phosphorylation.
The rat tau-protein expressed in E. coli BL21 by a gene recombination was purified by a method described in J. Biol. Chem., 267, 10897-10901 (1992).
The hippocampus extract (1 microliter) was added to a solution of the rat tau-protein (400 micrograms/ml) dissolved in a buffer A containing 1 mM [τ-^32P]ATP (10-20 Ci/mmole) and then 10 micromoles of okadaic acid was added to make the final volume 10 microliters. This was incubated at 37° C. for three hours and the reaction was stopped by adding a buffer for electrophoresis. After subjecting to a 10% polyacrylamide gel electrophoresis, the ^32p in the tau-protein was observed by a laser image analyzer (Fuji BAS 2000).

For another data set, the system named is hippocampus cells. Kind of data set: Inhibiting action for the death of cranial nerve cells by AβP (living cell count, phase contrast microscope). It is filed as cell-based, rat. The settings on record: for Numbers of Living Cells (%) After 6 hours / Numbers of Living Cells (%) After 21 hours: rat hippocampus cell culture, AβP 20 micromoles, oligonucleotide 1 micromole per 1 ml medium, 37° C., percentage to control. The source says:
Numbers of many normal and healthy cells were counted by a phase contrast microscope as an index of the living cells after the treatment. Normal cells mean those which have morphologically flat circumference and many nerve cell projections while the degenerated cells were judged by checking the irregular shape, degeneration of the neural projections, etc. Numbers of the living cells were counted in a well. In the standard culture liquid, the cell numbers were not less than 400 per well. The result was confirmed by an immunohistochemical means.
The primary culture medium of hippocampus of rats was prepared in accordance with a method described in Brain Res., 126, 397-425 (1977). Thus, the hippocampus tissues were collected from embryo of the rats of 18 days after fertilization and digested in papain (protease) (10 U/ml) at 37° C. for 20 minutes. The resulting cells were added to a Dulbecco's modified Eagle's medium supplied with 5% bovine fetus serum, 5% horse serum, 10 micrograms/ml insulin, 0.1 mg/ml transferrin, 1 microgram/ml aprotinin, 1 mM sodium pyruvate and 84 micrograms/ml gentamycin. This was planted to a well for tissue culture covered with poly-L-lysine at the density of 2×10^5 cells/cm^2, cultured for three days and treated with 1 micromole of cytosine-beta-arabinofuranoside for 24 hours and the cells of the fifth day of the culture were used.
The culture medium of the hippocampus prepared by the above-mentioned method was subjected to the following treatments (b) to (d), numbers of the living cells with an elapse of time were counted and the result is given in Table
(a) Nontreated culture medium (control):
(b) TPKI-antisense (1 micromole) was added to 1 ml of the cell culture medium and, after five minutes, 20 micromoles of AβP was added followed by keeping at 37° C. for 24 hours.
(c) AβP (20 micromoles) was added to 1 ml of the cell cuture medium followed by keeping at 37° C. for 24 hours.
(d) TPKI-sense (1 micromole) was added to 1 ml of the cell culture medium and, after five minutes, 20 micromoles of AμP was added followed by keeping at 37° C. for 24 hours.

This note sets out measurements from patent US20020058637A1, “Methods of inhibiting tau-protein kinase I activity, inhibiting neuronal cell death and treating alzheimer's disease and tau-protein kinase I” (priority 1993, published 2002).

Entries after “also recorded” stand apart in the source; their conditions may differ.

Turning to “partially-purified TPK-I: recombinant human-originated tau-protein kinase I (Seq. ID No. 1) expressed in E. coli BL21 (DE3), partially purified”, the “phosphoric acid incorporated into one molecule of tau-protein” value in the data set with tau-protein came to 1.2 mol.

Regarding “5′-TCTCGGTCGCCCCGACAT-3′ (listed as DNA, chemistry not given here) [TPKI-Antisense, tested together with AβP]”, in the data set on TPK-I (TPKI-antisense and AβP versus only AβP), the “phosphorylating activity of TPK-I relative to the case in which only AβP was acted” value is recorded as “about one half; also recorded: about one-half”. Also, in the data set with TPK-I (hippocampus cell supernatant, AβP 20 micromoles, TPKI-antisense 1 micromole, rat tau-protein substrate), the “Phosphorylating Activity of TPKI” value turned out to be 31.6 unit/mg protein. In addition, the “cytotoxity by AβP observed with phase contrast microscope” value with hippocampus cells (TPKI-antisense and AβP on hippocampus cells, after 24 hours, magnifying power 400) was “little being similar to the controls; also recorded: little and similar to the case of the control”. In the data set on hippocampus cells, the “Numbers of Living Cells (%) After 6 hours” value is listed as 83.0% and the “Numbers of Living Cells (%) After 21 hours” value came out at 72.6%.

On to “5′-ATGTCGGGGCGACCGAGA-3′ (listed as DNA, chemistry not given here) [TPKI-Sense, tested together with AβP, reference compound]”, for which, in the data set with hippocampus cells, the “Numbers of Living Cells (%) After 6 hours” value turned out to be 49.5% and the “Numbers of Living Cells (%) After 21 hours” value came to 17.1%.
